pEC50: −log10 of the molar value. Read-outs that look alike come from different tables or passages of the source.
Legend:
HIV-2 [1] = assay: Inhibition of HIV-2 in CEM cells (giant cell formation); type: cell-based; settings: read-out: HIV2 CEM: EC50 for inhibition of HIV-2 in CEM cells
Procedure: (§1) Cells were infected with HIV-1 as previously described [Balzarini et al. AIDS (1991), 5, 21–28]. Briefly, 5×10^5 cells per milliliter were infected with HIV-1 or HIV-2 at 100 CCID50 (50% cell culture infective dose) per milliliter of cell suspension. Then 100 μL of the infected cell suspension was transferred to microtiter plate wells and mixed with 100 μL of the appropriate dilutions of the test compounds. After 4 days giant cell formation was recorded microscopically in the HIV-infected cell cultures [CEM], and after 5 days the number of viable cells was determined by trypan blue staining of the HIV-infected cell cultures [MT4].
(§2) The data columns are, in order: • HIV1 MT4: EC50 in μM for inhibition of HIV-1 in MT4 cells. • HIV2 MT4: EC50 in μM for inhibition of HIV-2 in MT4 cells. • CC50 MT4: CC50 in μM for toxicity to MT-4 cells. • HIV1 CEM: EC50 in μM for inhibition of HIV-1 in CEM cells. • HIV2 CEM: EC50 in μM for inhibition of HIV-2 in CEM cells. • HIV2 CEM-TK-: EC50 in μM for inhibition of HIV-2 in CEM/TK^− cells. • CC50 CEM: CC50 in μM for toxicity to CEM cells. • EC50 MSV: EC50 in μM for inhibition of MSV • MCC MSV: Minimum cytotoxic concentration in MSV assay

MSV = assay: Inhibition of MSV (in vitro); type: cell-based, Moloney Sarcoma Virus
From the text: as §2

CEM cells = assay: Toxicity to CEM cells; type: cell-based, human
Procedure: as §1, §2

HIV-1 = assay: microbe, parasite or virus in culture; settings: read-out: HIV1 CEM: EC50 for inhibition of HIV-1 in CEM cells
Procedure: as §1, §2

[2] = Minimum cytotoxic concentration in MSV assay; type: cell-based
From the text: as §2, with “CEM/TK^-” for “CEM/TK^−”, “[…]:” for “MSV • MCC MSV:”

HIV-2 [3] = assay: Inhibition of HIV-2 in CEM/TK- cells; type: cell-based
Procedure: as §1, §2

[4] = Table 6, mean of two or more repeat experiments
[5] = Table 6, mean of two or more repeat experiments, read-out: HIV2 CEM-TK-: EC50 for inhibition of HIV-2 in CEM/TK^− cells

| SMILES | pEC50 (HIV-2 [1]; [4]) | pEC50 (MSV; Table 6) | CC50 (CEM cells; [4]) | pEC50 (HIV-1; [4]) | MCC MSV: Minimum cytotoxic concentration in MSV assay ([2]; Table 6) | pEC50 (HIV-2 [3]; [5]) | pEC50 (HIV-2 [1]; CEM cells, HIV-2) | pEC50 (MSV; MSV) | CC50 (CEM cells; CEM cells) | pEC50 (HIV-1; CEM cells, HIV-1) | MCC MSV: Minimum cytotoxic concentration in MSV assay ([2]; MSV assay) | pEC50 (HIV-2 [3]; CEM/TK- cells, HIV-2, read-out: HIV2 CEM-TK-: EC50 for inhibition of HIV-2 in CEM/TK- cells) |
| --- | --- | --- | --- | --- | --- | --- | --- | --- | --- | --- | --- | --- |
| COC(=O)CCC(NP(=O)(OCC1C=CC(n2cc(C)c(=O)[nH]c2=O)O1)Oc1ccccc1)C(=O)OC (stereo not drawn) [Compound 1081] | 5.27 | 4.05 | ≥ 250 µM | 5.10 | >100 | 4.80 |  |  |  |  |  |  |
| COC(=O)C(C)NP(=O)(O)OCC1C=CC(n2cc(C)c(=O)[nH]c2=O)O1 (stereo not drawn) [Compound 1129] | 5.35 | 4.32 | > 250 µM | 5.70 | >100 | 4.30 |  |  |  |  |  |  |
| CCOC(=O)CN(C)P(=O)(OC[C@@H]1C=C[C@H](n2cc(C)c(=O)[nH]c2=O)O1)Oc1ccccc1 (stereo partly drawn) [Compound 1133, 2′,3′-dideoxy-2′,3′-didehydrothymidine 5′-(phenylethoxysarcosinyl phosphate)] | 4.06 | < 4.00 | ≥ 250 µM | 4.12 | >100 | < 3.60 |  |  |  |  |  |  |
| Cc1cn(C2C=CC(COP(=O)(O)N[C@H](C)C(=O)O)O2)c(=O)[nH]c1=O (stereo partly drawn) [Compound 1095] | 5.80 | 6.38 | > 250 µM | 5.89 | >100 | 5.00 |  |  |  |  |  |  |
| Cc1cn(C2C=CC(COP(=O)(Oc3ccccc3)N3CCCC3C(=O)OCc3ccccc3)O2)c(=O)[nH]c1=O (stereo not drawn) [Compound 933] | 4.90 | < 4.00 | 92 µM | 4.46 | >100 | < 4.30 |  |  |  |  |  |  |
| COC(=O)C(OP(=O)(OCC1C=CC(n2cc(C)c(=O)[nH]c2=O)O1)Oc1ccccc1)c1ccccc1 (stereo not drawn) [Compound 982] | 6.19 | 4.85 | 94 µM | 5.77 | >100 | 4.82 |  |  |  |  |  |  |
| Cc1cn(C2CC(N=[N+]=[N-])C(COP(=O)(O)NC(C)C(=O)O)O2)c(=O)[nH]c1=O (stereo not drawn) [Cpd 1071] |  |  |  |  |  |  | 5.00 | < 3.60 | > 250 µM | 3.94 | >100 | 3.60 |
| CCOC(=O)CCNP(=O)(OCC1C=CC(n2cc(C)c(=O)[nH]c2=O)O1)Oc1ccccc1 (stereo not drawn) [Compound 950] | ≤ 3.60 | < 4.00 | > 250 µM | 3.60 | >100 | < 3.60 |  |  |  |  |  |  |
| Cc1cn(C2C=CC(COP(=O)(O)O)O2)c(=O)[nH]c1=O (stereo not drawn) [Compound 1131] | 6.22 | 5.17 | ≥ 250 µM | 6.40 | >100 | 4.30 |  |  |  |  |  |  |
| Cc1cn(C2C=CC(COP(=O)(O)NC(CC(=O)O)C(=O)O)O2)c(=O)[nH]c1=O (stereo not drawn) [Compound 1079] | 5.60 | 5.03 | ≥ 250 µM | 5.80 | >100 | 4.15 |  |  |  |  |  |  |
| COC(=O)COP(=O)(OCC1C=CC(n2cc(C)c(=O)[nH]c2=O)O1)Oc1ccccc1 (stereo not drawn) [Compound 980] | 4.30 | < 4.00 | > 250 µM | 4.56 | >100 | < 3.60 |  |  |  |  |  |  |
